Test results as given in patent publication US12552783B2, “Modulators of proteolysis and associated methods of use” (Arvinas Operations, Inc., priority 2018, dated 2026).

Molecular target: KRas (Homo sapiens, UniProt P01116, G12C)
Test: KRas degradation in NCI-H2030 cells by Western blot, normalized to GAPDH (data of Table 14)
Format: cell-based
Set-up: host or cells: NCI-H2030
Conditions: for Dmax: NCI-H2030
Procedure, shortened: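 After overnight adherence and 24 h without FBS, compounds added at 0.3, 1 or 3 μM (0.1% DMSO) for 24 h (VHL-based) or 72 h (others). Western blot of RIPA lysates, KRas signal over GAPDH relative to DMSO; DC50 and DMax derived, or <25% scored visually.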

SMILES | Percent Degradation at Indicated Concentration (μM): 0.3 (H2030 cells, 0.3 μM) | Percent Degradation at Indicated Concentration (μM): 1 (H2030 cells, 1 μM) | Percent Degradation at Indicated Concentration (μM): 3 (H2030 cells, 3 μM) | Dmax (H2030 cells) | Percent Degradation at Indicated Concentration (μM) (H2030, 0.3 μM) | Percent Degradation at Indicated Concentration (μM) (H2030, 1 μM) | Percent Degradation at Indicated Concentration (μM) (H2030, 3 μM) | Dmax | other results
C=CC(=O)N1CCN(c2nc(NCCC(=O)N(C)CCOCCOCCOCCOCC(=O)N[C@H](C(=O)N3C[C@H](O)C[C@H]3C(=O)N[C@@H](C)c3ccc(-c4scnc4C)cc3)C(C)(C)C)nc3c(F)c(-c4cc(O)cc5ccccc45)c(Cl)cc23)CC1 [compound 194, (2S,4R)-1-((2S)-21-((4-(4-acryloylpiperazin-1-yl)-6-chloro-8-fluoro-7-(3-hydroxynaphthalen-1-yl)quinazolin-2-yl)amino)-2-(tert-butyl)-18-methyl-4,19-dioxo-6,9,12,15-tetraoxa-3,18-diazahenicosanoyl)-4-hydroxy-N-((S)-1-(4-(4-methylthiazol-5-yl)phenyl)ethyl)pyrrolidine-2-carboxamide] | C (C ≤ 35) | C (C ≤ 35) | C (C ≤ 35) | ≤ 35% |  |  |  |  | 
C=CC(=O)N1CCN(c2nc(NCCC(=O)N(C)CCOCCOc3cc(-c4scnc4C)ccc3CNC(=O)[C@@H]3C[C@@H](O)CN3C(=O)[C@H](c3cc(C)no3)C(C)C)nc3c(F)c(-c4cc(O)cc5ccccc45)c(Cl)cc23)CC1 [compound 340, (2S,4R)-N-(2-(2-(2-(3-((4-(4-acryloylpiperazin-1-yl)-6-chloro-8-fluoro-7-(3-hydroxynaphthalen-1-yl)quinazolin-2-yl)amino)-N-methylpropanamido)ethoxy)ethoxy)-4-(4-methylthiazol-5-yl)benzyl)-4-hydroxy-1-((S)-3-methyl-2-(3-methylisoxazol-5-yl)butanoyl)pyrrolidine-2-carboxamide] | C (C ≤ 35) | C (C ≤ 35) | C (C ≤ 35) | ≤ 35% |  |  |  |  | 
C=CC(=O)N1CCN(c2nc(O[C@H](C)CN3CCC(OCCOc4ccc5c(c4)C(=O)N(C4CCC(=O)NC4=O)C5=O)CC3)nc3c2CCN(c2cc(O)cc4ccccc24)C3)CC1 (stereo partly drawn) [compound 416, 5-(2-((1-((R)-2-((4-(4-acryloylpiperazin-1-yl)-7-(3-hydroxynaphthalen-1-yl)-5,6,7,8-tetrahydropyrido[3,4-d]pyrimidin-2-yl)oxy)propyl)piperidin-4-yl)oxy)ethoxy)-2-(2,6-dioxopiperidin-3-yl)isoindoline-1,3-dione] |  |  |  |  |  |  |  |  | Percent Degradation at Indicated Concentration (μM) (H2030 cells, 0.3 μM): C (Percent Degradation: C ≤ 35); Percent Degradation at Indicated Concentration (μM) (H2030 cells, 1 μM): C (Percent Degradation: C ≤ 35); Percent Degradation at Indicated Concentration (μM) (H2030 cells, 3 μM): C (Percent Degradation: C ≤ 35)
CCC(=O)N1CCN(c2nc(NCCC(=O)N(C)CCOCCOCCOCC(=O)N[C@H](C(=O)N3C[C@H](O)C[C@H]3C(=O)N[C@@H](C)c3ccc(-c4scnc4C)cc3)C(C)(C)C)nc3c(F)c(-c4cc(O)cc5ccccc45)c(Cl)cc23)CC1 [compound 188, (2S,4R)-1-((2S)-2-(tert-butyl)-18-((6-chloro-8-fluoro-7-(3-hydroxynaphthalen-1-yl)-4-(4-propionylpiperazin-1-yl)quinazolin-2-yl)amino)-15-methyl-4,16-dioxo-6,9,12-trioxa-3,15-diazaoctadecanoyl)-4-hydroxy-N-((S)-1-(4-(4-methylthiazol-5-yl)phenyl)ethyl)pyrrolidine-2-carboxamide] | C (C ≤ 35) | C (C ≤ 35) | C (C ≤ 35) | ≤ 35% |  |  |  |  | 
CN(C)C(=O)CCNc1nc(N2CCN(C(=O)/C=C/CCOCCOc3ccc4c(c3)C(=O)N(C3CCC(=O)NC3=O)C4=O)CC2)c2cc(Cl)c(-c3cc(O)cc4ccccc34)c(F)c2n1 (stereo not shown) [compound 172, (E)-3-((6-chloro-4-(4-(5-(2-((2-(2,6-dioxopiperidin-3-yl)-1,3-dioxoisoindolin-5-yl)oxy)ethoxy)pent-2-enoyl)piperazin-1-yl)-8-fluoro-7-(3-hydroxynaphthalen-1-yl)quinazolin-2-yl)amino)-N,N-dimethylpropanamide] |  |  |  |  | C (Percent Degradation: C ≤ 35) | C (Percent Degradation: C ≤ 35) | C (Percent Degradation: C ≤ 35) | ≤ 35% | 
Cc1ncsc1-c1ccc([C@H](C)NC(=O)[C@@H]2C[C@@H](O)CN2C(=O)[C@@H](NC(=O)COCCOCC/C=C/C(=O)N2CCN(c3ncnc4c(F)c(-c5cc(O)cc6ccccc56)c(Cl)cc34)CC2)C(C)(C)C)cc1 [compound 373, (2S,4R)-1-((2S)-2-(2-(2-(((E)-5-(4-(6-chloro-8-fluoro-7-(3-hydroxynaphthalen-1-yl)quinazolin-4-yl)piperazin-1-yl)-5-oxopent-3-en-1-yl)oxy)ethoxy)acetamido)-3,3-dimethylbutanoyl)-4-hydroxy-N-((S)-1-(4-(4-methylthiazol-5-yl)phenyl)ethyl)pyrrolidine-2-carboxamide] |  |  |  |  | C (Percent Degradation: C ≤ 35) | C (Percent Degradation: C ≤ 35) | C (Percent Degradation: C ≤ 35) | ≤ 35% | 
C=CC(=O)N1CCN(c2nc(NCCC(=O)N(C)CCOCCOCCOCCOCC(=O)N[C@H](C(=O)N3C[C@H](O)C[C@H]3C(=O)N[C@@H](C)c3ccc(-c4scnc4C)cc3)C(C)(C)C)nc3c(F)c(-c4c(O)cccc4F)c(Cl)cc23)CC1 (atropisomer, axis not shown) [compound 212, (2S,4R)-1-((S)-21-(((R)-4-(4-acryloylpiperazin-1-yl)-6-chloro-8-fluoro-7-(2-fluoro-6-hydroxyphenyl)quinazolin-2-yl)amino)-2-(tert-butyl)-18-methyl-4,19-dioxo-6,9,12,15-tetraoxa-3,18-diazahenicosanoyl)-4-hydroxy-N-((S)-1-(4-(4-methylthiazol-5-yl)phenyl)ethyl)pyrrolidine-2-carboxamide] |  |  |  |  | C (Percent Degradation: C ≤ 35) | C (Percent Degradation: C ≤ 35) | C (Percent Degradation: C ≤ 35) | ≤ 35% | 
C=CC(=O)N1CCN(c2nc(NCCC(=O)N(C)CCOCCOCCOCCOCCNc3cccc4c3C(=O)N(C3CCC(=O)NC3=O)C4=O)nc3c(F)c(-c4c(O)cccc4F)c(Cl)cc23)CC1 [compound 115, 3-(((S)-4-(4-acryloylpiperazin-1-yl)-6-chloro-8-fluoro-7-(2-fluoro-6-hydroxyphenyl)quinazolin-2-yl)amino)-N-(14-((2-(2,6-dioxopiperidin-3-yl)-1,3-dioxoisoindolin-4-yl)amino)-3,6,9,12-tetraoxatetradecyl)-N-methylpropanamide] |  |  |  |  |  |  | C (Percent Degradation: C ≤ 35) |  | 
CN(CCOCCNc1cccc2c1C(=O)N(C1CCC(=O)NC1=O)C2=O)C(=O)CCNc1nc(N2CCN(C(N)=O)CC2)c2cc(Cl)c(-c3cc(O)cc4ccccc34)c(F)c2n1 (stereo not shown) [compound 32, 4-(6-chloro-2-((3-((2-(2-((2-(2,6-dioxopiperidin-3-yl)-1,3-dioxoisoindolin-4-yl)amino)ethoxy)ethyl)(methyl)amino)-3-oxopropyl)amino)-8-fluoro-7-(3-hydroxynaphthalen-1-yl)quinazolin-4-yl)piperazine-1-carboxamide] |  |  |  |  | C (Percent Degradation: C ≤ 35) | C (Percent Degradation: C ≤ 35) | C (Percent Degradation: C ≤ 35) | ≤ 35% | 
C=CC(=O)N1CCN(c2nc(O[C@H](C)CN3CCC(OCCOCCOCCOc4ccc5c(c4)CN(C4CCC(=O)NC4=O)C5=O)CC3)nc3c2CCN(c2cc(O)cc4ccccc24)C3)CC1 (stereo partly drawn) [compound 423, 3-(5-(2-(2-(2-((1-((R)-2-((4-(4-acryloylpiperazin-1-yl)-7-(3-hydroxynaphthalen-1-yl)-5,6,7,8-tetrahydropyrido[3,4-d]pyrimidin-2-yl)oxy)propyl)piperidin-4-yl)oxy)ethoxy)ethoxy)ethoxy)-1-oxoisoindolin-2-yl)piperidine-2,6-dione] |  |  |  |  |  |  |  |  | Percent Degradation at Indicated Concentration (μM) (H2030 cells, 0.3 μM): C (Percent Degradation: C ≤ 35); Percent Degradation at Indicated Concentration (μM) (H2030 cells, 1 μM): C (Percent Degradation: C ≤ 35); Percent Degradation at Indicated Concentration (μM) (H2030 cells, 3 μM): C (Percent Degradation: C ≤ 35)
C=CC(=O)N1CCN(c2nc(NCCC(=O)N(C)CCOCCOCCOCCNc3cccc4c3C(=O)N(C3CCC(=O)NC3=O)C4=O)nc3c(F)c(-c4c(O)cccc4F)c(Cl)cc23)CC1 [compound 113, 3-(((S)-4-(4-acryloylpiperazin-1-yl)-6-chloro-8-fluoro-7-(2-fluoro-6-hydroxyphenyl)quinazolin-2-yl)amino)-N-(2-(2-(2-(2-((2-(2,6-dioxopiperidin-3-yl)-1,3-dioxoisoindolin-4-yl)amino)ethoxy)ethoxy)ethoxy)ethyl)-N-methylpropanamide] |  |  |  |  | C (Percent Degradation: C ≤ 35) | C (Percent Degradation: C ≤ 35) | C (Percent Degradation: C ≤ 35) | ≤ 35% | 
C=CC(=O)N1CCN(c2nc(NCCC(=O)N(C)CCOCCOc3ccc4c(c3)C(=O)N(C3CCC(=O)NC3=O)C4=O)nc3c(F)c(-c4cc(O)cc5ccccc45)c(Cl)cc23)CC1 (stereo not shown) [compound 60, 3-((4-(4-acryloylpiperazin-1-yl)-6-chloro-8-fluoro-7-(3-hydroxynaphthalen-1-yl)quinazolin-2-yl)amino)-N-(2-(2-((2-(2,6-dioxopiperidin-3-yl)-1,3-dioxoisoindolin-5-yl)oxy)ethoxy)ethyl)-N-methylpropanamide] | C (C ≤ 35) | C (C ≤ 35) | C (C ≤ 35) | ≤ 35% |  |  |  |  | 
